Consider 1 molecule from paper PMC7004565, “Nucleotide inhibition of the pancreatic ATP-sensitive K^+ channel explored with patch-clamp fluorometry” (eLife, 2020).

pEC50: −log10 of the molar value.

One experiment concerns the target Kir6.2-GFP + SUR1 (Homo sapiens, UniProt Q14654). Nature of the experiment: FRET (ANAP quenching) nucleotide binding in unroofed membranes. Also on record: full length, fully ANAP-labelled Kir6.2 protein was produced and successfully trafficked to the membrane in the presence of SUR1; expressed in transfected cells; host or cells: HEK-293T. The following applies: Hill fit. From the text:
To measure nucleotide binding, cells transfected with Kir6.2*-GFP + SUR1 were briefly sonicated, leaving behind unroofed plasma membrane fragments ([Heuser, 2000]; [Zagotta et al., 2016]; [Puljung et al., 2019]) containing ANAP-labelled KATP channels with the intracellular nucleotide-binding sites exposed to the bath solution. The sample was excited with a 385 nm LED and emitted fluorescence from the membrane fragments was passed through a spectrometer, allowing us to separate ANAP, GFP, and TNP-ATP fluorescence by peak wavelength (Figure 1E,F). As expected from FRET, increasing the concentration of TNP-ATP caused a decrement in the ANAP peak at 472 nm and a concomitant increase in the TNP-ATP peak at 561 nm (Figure 1F). We used the quenching of the ANAP peak as a direct measure of TNP-ATP binding as this signal was specific to KATP. In contrast, the peak TNP-ATP fluorescence may include contributions from both specific and non-specific nucleotide binding, as well as direct excitation of TNP-ATP in solution by the 385 nm excitation light. Due to the sharp cut-off of the GFP emission spectrum at shorter wavelengths, our measurements of peak ANAP fluorescence were unaffected by the presence of the GFP tag on Kir6.2. […]
Epifluorescence imaging and spectroscopy were performed using a Nikon Eclipse TE2000-U microscope with a 60x water immersion objective (Plan Apo VC, NA = 1.2, Nikon; Kingston upon Thames, UK) or a 100x oil immersion objective (Nikon, Apo TIRF, NA = 1.49). […] Fluorescence spectra were collected by exciting ANAP as above but using a 400 nm long-pass emission filter (ThorLabs), then passing emitted light through an IsoPlane 160 Spectrometer (Princeton Instruments; Trenton, NJ) with a 300 grooves mm^-1 grating. […]
Unroofed membranes were prepared as described previously ([Heuser, 2000]; [Zagotta et al., 2016]; [Puljung et al., 2019]). […] Unroofed membrane fragments were nearly invisible in bright-field images and identified by their GFP and ANAP fluorescence. […]

The next experiment concerns the target T1, Kir6.2*-GFP + SUR-K205E (Homo sapiens, UniProt Q14654).
T1 construct: ANAP labelling is specific and only full-length Kir6.2 is expressed at the cell membrane; expressed in transfected cells; host or cells: HEK-293T
The experiment in a line: ANAP fluorescence quenching in excised patches (patch-clamp fluorometry). Format: binding. The conditions noted are these: excised patches (PCF), Hill fit. From the text:
(§1) We introduced a charge neutralization (alanine, K205A) and a charge reversal (glutamate, K205E) mutation at this position and measured simultaneous nucleotide binding and current inhibition with PCF (Figure 4B,C,D). The binding and inhibition curves for TNP-ATP almost perfectly overlaid for the SUR1-K205A mutant (Figure 4C). The same was also true for SUR1-K205E (Figure 4D). Data were fit with the MWC-type model as before. […] This was reflected by a decrease in the estimated KA for TNP-ATP, which correlated with the degree of conservation of the mutation, that is we observed a larger effect for the charge reversal compared to the charge neutralization mutation (Figure 4E). However, in addition to direct effects of K205 on nucleotide binding, we also observed a shift in D for both mutations (Figure 4E).
(§2) Currents were measured as described above.
(§3) ANAP bleaching was corrected as for the unroofed binding experiments with Equation 1 (Figure 2—figure supplement 3A). Due to the lower signal-to-noise ratio for PCF compared to the unroofed membranes, we performed experiments from both high-to-low and low-to-high TNP-ATP concentrations to minimise artifacts from our bleaching corrections.
(Patch clamp records ionic current or voltage across a cell membrane.)

Another experiment concerns the target T2, Kir6.2*-GFP + SUR-K205A (Homo sapiens, UniProt Q14654).
T2 construct: ANAP labelling is specific and only full-length Kir6.2 is expressed at the cell membrane; expressed in transfected cells; host or cells: HEK-293T
Described as above. Format: binding. The conditions noted are these: excised patches (PCF), Hill fit.
Text: as §1, §2, §3

T1 sequence (Q14654 whole entry, stated change not applied): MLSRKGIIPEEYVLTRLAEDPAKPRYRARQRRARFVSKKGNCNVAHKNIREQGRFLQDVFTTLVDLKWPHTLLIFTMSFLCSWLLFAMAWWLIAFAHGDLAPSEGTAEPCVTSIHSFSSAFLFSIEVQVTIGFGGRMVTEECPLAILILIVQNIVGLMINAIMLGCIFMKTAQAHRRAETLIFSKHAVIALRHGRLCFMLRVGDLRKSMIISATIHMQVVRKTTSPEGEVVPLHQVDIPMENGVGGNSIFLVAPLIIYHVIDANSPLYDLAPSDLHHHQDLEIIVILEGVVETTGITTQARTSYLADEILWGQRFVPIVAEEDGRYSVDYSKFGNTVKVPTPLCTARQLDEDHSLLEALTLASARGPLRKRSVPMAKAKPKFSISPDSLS
T1 sequence (Q09428 whole entry K205E partner): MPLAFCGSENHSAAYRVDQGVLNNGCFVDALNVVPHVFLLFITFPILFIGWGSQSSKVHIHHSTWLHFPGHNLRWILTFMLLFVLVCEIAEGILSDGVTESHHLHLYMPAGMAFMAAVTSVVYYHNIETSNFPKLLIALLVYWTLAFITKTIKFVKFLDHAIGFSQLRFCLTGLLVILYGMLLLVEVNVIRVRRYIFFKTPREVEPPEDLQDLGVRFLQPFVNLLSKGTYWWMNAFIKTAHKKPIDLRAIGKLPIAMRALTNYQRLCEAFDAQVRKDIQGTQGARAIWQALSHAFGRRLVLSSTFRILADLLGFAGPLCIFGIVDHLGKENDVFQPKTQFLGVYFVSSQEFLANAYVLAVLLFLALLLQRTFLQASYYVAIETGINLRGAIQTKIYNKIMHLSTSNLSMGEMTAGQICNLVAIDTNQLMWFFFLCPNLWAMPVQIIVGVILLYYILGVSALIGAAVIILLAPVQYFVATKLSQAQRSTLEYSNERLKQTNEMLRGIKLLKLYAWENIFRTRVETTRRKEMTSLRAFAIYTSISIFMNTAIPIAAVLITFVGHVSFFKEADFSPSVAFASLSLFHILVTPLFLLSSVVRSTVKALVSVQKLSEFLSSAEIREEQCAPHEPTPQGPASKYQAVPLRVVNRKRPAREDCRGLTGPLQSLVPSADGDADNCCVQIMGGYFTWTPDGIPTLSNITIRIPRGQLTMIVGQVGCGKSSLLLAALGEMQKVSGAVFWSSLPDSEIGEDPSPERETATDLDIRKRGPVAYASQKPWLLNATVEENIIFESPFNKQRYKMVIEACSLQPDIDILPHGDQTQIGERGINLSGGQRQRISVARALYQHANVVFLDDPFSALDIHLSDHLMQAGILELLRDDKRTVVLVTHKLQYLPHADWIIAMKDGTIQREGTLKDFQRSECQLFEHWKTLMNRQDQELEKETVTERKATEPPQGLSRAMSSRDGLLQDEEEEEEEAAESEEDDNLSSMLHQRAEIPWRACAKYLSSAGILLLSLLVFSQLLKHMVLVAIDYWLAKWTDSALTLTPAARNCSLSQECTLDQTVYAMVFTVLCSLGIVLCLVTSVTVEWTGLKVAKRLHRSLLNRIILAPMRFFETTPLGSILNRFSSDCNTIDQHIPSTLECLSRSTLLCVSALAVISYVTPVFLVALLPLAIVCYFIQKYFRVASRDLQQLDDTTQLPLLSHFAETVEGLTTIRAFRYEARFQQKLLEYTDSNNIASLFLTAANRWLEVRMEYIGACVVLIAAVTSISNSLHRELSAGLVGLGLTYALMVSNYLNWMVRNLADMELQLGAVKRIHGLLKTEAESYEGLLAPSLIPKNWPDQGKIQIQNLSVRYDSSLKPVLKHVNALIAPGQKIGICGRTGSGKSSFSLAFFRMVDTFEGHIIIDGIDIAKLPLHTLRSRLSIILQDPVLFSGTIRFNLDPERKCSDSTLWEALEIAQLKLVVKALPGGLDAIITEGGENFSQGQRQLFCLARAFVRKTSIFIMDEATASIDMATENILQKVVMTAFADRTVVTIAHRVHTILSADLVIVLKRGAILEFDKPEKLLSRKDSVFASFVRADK
Sequence of Kir6.2-GFP + SUR1 (Q14654 whole entry, the tested form may be a part): as the sequence (Q14654 whole entry, stated change not applied) above
Sequence of Kir6.2-GFP + SUR1 (Q09428 whole entry partner, the tested form may be a part): as the sequence (Q09428 whole entry K205E partner) above, with E205K counted along it
T2 sequence (Q14654 whole entry, stated change not applied): as the sequence (Q14654 whole entry, stated change not applied) above
T2 sequence (Q09428 whole entry K205A partner): as the sequence (Q09428 whole entry K205E partner) above, with E205A counted along it

With `Nc1ncnc2c1ncn2[C@@H]1O[C@H](COP(=O)(O)OP(=O)(O)OP(=O)(O)O)[C@H]2OC3(O[C@H]21)C([N+](=O)[O-])=CC(=[N+]([O-])[O-])C=C3[N+](=O)[O-]` (stereo partly drawn) [TNP-ATP, trinitrophenyl-ATP], the entries for the “h (Hill coefficient) fluorescence quenching” value at Kir6.2-GFP + SUR1, at Kir6.2*-GFP + SUR-K205E and at Kir6.2*-GFP + SUR-K205A were 0.82, 0.74 and 0.73, respectively. In addition, the Emax at Kir6.2-GFP + SUR1 (fraction, read-out: Emax fluorescence quenching) was determined as 93%; at Kir6.2*-GFP + SUR-K205E (fraction), 100%; on Kir6.2*-GFP + SUR-K205A (fraction), 100%. Further, the pEC50 at Kir6.2-GFP + SUR1 (n = 18, read-out: EC50 fluorescence quenching) was 4.59; on Kir6.2*-GFP + SUR-K205E (n = 9) it was 3.37; on Kir6.2*-GFP + SUR-K205A (n = 9) it was 3.69.

Usually Emax stands for the greatest response seen or fitted, relative to the assay's reference. A word on the pEC50: it is the EC50 on a negative log10 scale, so that one unit is a factor of ten.
